Measurements taken from patent US20260240844A1, “INHIBITORS OF CHD1L AND USES THEREOF” (The Regents of the University of Colorado, a body corporate, priority 2023, published 2026).
“Also recorded” adds a separate entry of the source. Read-outs that look alike come from different tables or passages of the source.

How the values were obtained:
Assay type in all cases: cell-based
[1] = system: MDA-MB-231 tumor organoids; assay: Tumor organoid cytotoxicity, MDA-MB-231; settings: for IC50: Homo sapiens
Experimental: Tumor organoid culture—Cell lines were cultured as tumor organoids by seeding 2,000 to 5,000 cells/well into uncoated 96 well U-bottom Ultra Low Attachment Microplates (Corning) using their corresponding medium. Cell aggregation was then promoted by centrifugation of the plates for 15 min at 1,000 rpm followed by the addition of Matrigel (Corning) to a 2-5% final concentration. Tumor organoids were maintained under standard cell culture conditions for 72 h prior to drug treatment.
Organoids were then transferred to a white solid bottom 96 well plate and incubated with an equal volume of CellTiter Glo 3D reagent (Promega) for 45 min on a shaker at 400 rpm. Luminescence was recorded using the EnVision plate reader (PerkinElmer) and values normalized to the controls using GraphPad Prism.

AIF in SUM149PT cells = assay: AIF immunofluorescence in SUM149PT (SUM149) cells; settings: for nuclear AIF / cytoplasmic AIF: SUM149PT cells, single agent, 18 h
From the text: CHD1Li-mediated PAR translocation to the cytoplasm activates PARthanatos as a cell death mechanism. Parthanatos is a form a programmed cell death different from apoptosis and known to be mediated by PARP1 overactivation. The unique events occurring during parthanatos are: PARP1 rapid activation, accumulation of PAR and nuclear translocation of apoptosis inducing factor (AIF). Without being bound by any particular theory, accumulation of PAR in the cytoplasm caused by CHD1Li can also mediate parthanatos. To better understand the link between PAR translocation to the cytoplasm and cell death, immunofluorescence to measure the activation of caspase-3 and the subcellular localization of AIF after treatment with SOC drugs and Compound 6 in SUM49PT cells was used. […] Without being bound by any particular theory, this might be caused by the mitochondrial outer membrane permeabilization, which triggers release of mitochondrial proteins like AIF or cytochrome c, activating caspase-3 by its cleavage and leading to apoptosis. […] Moreover, when combining CHD1L inhibition with SOC drugs, the cell death mechanism shifts from apoptosis to parthanatos, evidenced by a significant increase in AIF nuclear translocation and decrease in activation of caspase-3 (FIG. 25D-E).
The ability of Compounds 12, 15 and 16 to localize AIF was tested in SUM149 (breast cancer) and MDA-MB-231 (TNBC) cell lines. A comparison of the relative distribution of AIF in nuclei (a) versus cytoplasm (b) in SUM149 cells and nuclei (c) versus cytoplasm (d) in MDA-MB-231 cells in the presence of 4 μM Compounds 12, 15 and 16 are shown in FIG. 28. […] Similarly, AIF concentration in the cytoplasm of MDA-MB-231 cells decreased by about 0.5 after administration with Compound 15. After treatment with Compound 16, the relative concentration of AIF in the nuclei of SUM149 cells increased by about 0.5-fold, and the concentration of AIF in the cytoplasm decreased by about 0.4-fold. In MDA-MB-231 cells, the relative concentration of AIF in the cytoplasm decreased by about 0.5-fold, while the concentration of AIF increased in the nuclei by about 0.1-fold.

PAR in SUM149PT cells = assay: PAR immunofluorescence (nuclear / cytoplasmic PAR); settings: for cytoplasmic PAR / nuclear PAR (PARylation): SUM149PT cells, single agent; for nuclear PAR (PARylation): 4 h
From the text: Inhibition of CHD1L promotes PAR translocation to the cytoplasm. The main role of PARP1 during the DDR is to detect and signal the recruitment of repair machinery to the sites of DNA damage. For that, PARP1/2 catalyze PARylation, which is a pivotal […] protein modification, consisting of the addition of ADP-ribose units to the carboxyl group of acidic residues such as glutamate or aspartate on target proteins by using NAD^+ as substrate. CHD1L is one of the proteins that requires binding to these PAR chains for its activation and subsequent chromatin remodeling. Using immunofluorescence of PAR, the effect of PARPi and CHD1Li on PARylation in SUM149PT cells was investigated. […] In addition, the effect of doxorubicin on nuclear PARylation was reverted by CHD1L inhibition, causing an increase of PAR in the cytoplasm (FIG. 25A-C).

SUM149PT cells = assay: Cell cycle analysis by flow cytometry
Experimental: Cells were then harvested by trypsinization, washed with PBS and fixed with 70% ice-cold ethanol for at least 2 h. The fixed cells were centrifuged at 300 g for 10 min, resuspended in PBS, centrifuged again, and stained in a 0.5 μg/mL DAPI solution in 0.1% Triton X-100-PBS for 30 min at RT. Samples were measured on a NovoCyte Penteon Cytometer (Agilent) and cell cycle distribution of single cells was analyzed using the automatic settings of FlowJo V10 (BD Biosciences).
Upon generation of DNA lesions, DNA damage checkpoints are also activated, which can lead to an arrest of the cell cycle, restraining chromosome segregation until the damaged DNA has been repaired. To study the effect of TNBC therapies and inhibition of CHD1L on the cell cycle, cells were stained with DAPI, and the cell subpopulations in G1, S and G2/M phases were analyzed by flow cytometry. […] Remarkably, the combination of these drugs with CHD1Li enhanced their effects, potentiating G2/M arrest caused by olaparib and G1 arrest caused by 5-FU (FIG. 23).

[2] = MDA-MB-231, MDA-MB-231 (BRCA wildtype HR-proficient), read-out: IC50, tumor organoid viability, single agent

## COc1cccc2c1C(=O)c1c(O)c3c(c(O)c1C2=O)C[C@@](O)(C(=O)CO)C[C@@H]3O[C@H]1C[C@H](N)[C@H](O)[C@H](C)O1 [doxorubicin]
[1]; MDA-MB-231, Compound 13 0 μM, read-out: IC50 doxorubicin (nM) in MDA-MB-231
  IC50: 346 nM
[1]; MDA-MB-231, Compound 13 2 μM, read-out: IC50 doxorubicin (nM) in MDA-MB-231
  IC50: 92.2 nM
[1]; MDA-MB-231, Compound 13 2.25 μM, read-out: IC50 doxorubicin (nM) in MDA-MB-231
  IC50: 81.5 nM
[1]; MDA-MB-231, Compound 13 2.5 μM, read-out: IC50 doxorubicin (nM) in MDA-MB-231
  IC50: 20.2 nM
AIF in SUM149PT cells
  nuclear AIF: some increase of AIF in the nucleus
PAR in SUM149PT cells
  cytoplasmic PAR: no effect on cytoplasmic PAR
  nuclear PAR (PARylation): increased PARylation in the nucleus
PAR in SUM149PT cells; listed as Doxorubicin
  nuclear PAR (PARylation): increased nuclear PAR
  cytoplasmic PAR: did not elevate cytoplasmic PAR

## O=C(c1cc(Cc2n[nH]c(=O)c3ccccc23)ccc1F)N1CCN(C(=O)C2CC2)CC1 [olaparib]
[1]; MDA-MB-231, Compound 13 0 μM, read-out: IC50 Olaparib (μM) in MDA-MB-231
  IC50: 102000 nM
[1]; MDA-MB-231, Compound 13 2 μM, read-out: IC50 Olaparib (μM) in MDA-MB-231
  IC50: 18700 nM
[1]; MDA-MB-231, Compound 13 2.25 μM, read-out: IC50 Olaparib (μM) in MDA-MB-231
  IC50: 12100 nM
[1]; MDA-MB-231, Compound 13 2.5 μM, read-out: IC50 Olaparib (μM) in MDA-MB-231
  IC50: 3100 nM
AIF in SUM149PT cells
  cytoplasmic AIF: increased cytoplasmic AIF; also recorded: increase in the AIF intensity in the cytoplasm
  nuclear AIF: did not enhance nuclear AIF; also recorded: no translocation of this protein to the nucleus
PAR in SUM149PT cells
  cytoplasmic PAR: increased cytoplasmic PAR; also recorded: increase in cytoplasmic PAR
  nuclear PAR (PARylation): inhibition of nuclear PARylation
SUM149PT cells; 24 h
  increase in the percentage of cells in the G2/M phase: 2 fold

## O=c1[nH]cc(F)c(=O)[nH]1 [Compound 5-FU, 5-fluorouracil]
[1]; Compound 13 0 μM
  IC50 5-FU (μM) in MDA-MB-231: Resistant
[1]; MDA-MB-231, Compound 13 2 μM, read-out: IC50 5-FU (μM) in MDA-MB-231
  IC50: 23500 nM
[1]; MDA-MB-231, Compound 13 2.25 μM, read-out: IC50 5-FU (μM) in MDA-MB-231
  IC50: 9100 nM
[1]; MDA-MB-231, Compound 13 2.5 μM, read-out: IC50 5-FU (μM) in MDA-MB-231
  IC50: 4600 nM
SUM149PT cells; 24 h
  increase in number of cells in G1 phase compared to untreated cells: 16%

## Cc1cc(Nc2ccc(NC(=O)Cc3cccs3)cc2)nc(N2CCCC2)n1 [Compound 6, N-(4-((6-methyl-2-(pyrrolidin-1-yl)pyrimidin-4-yl)amino)phenyl)-2-(thiophen-2-yl)acetamide]
[1]; [2]
  IC50: 3300 nM
AIF in SUM149PT cells
  cytoplasmic AIF: decrease in cytoplasmic AIF
  nuclear AIF: significantly increasing AIF in the nucleus
PAR in SUM149PT cells
  nuclear PAR (PARylation): caused the same effects as PARPi
SUM149PT cells; 24 hours, 0.2 μM
  cell cycle effect: arrest in S and G2/M phases

## Cc1cc(Nc2ccc(NC(=O)Cc3cc(Br)cs3)cc2)nc(N2CCCC2)n1 [Compound 6.11, 2-(4-bromothiophen-2-yl)-N-(4-((6-methyl-2-(pyrrolidin-1-yl)pyrimidin-4-yl)amino)phenyl)acetamide]
[1]; [2]
  IC50: ~3300 nM
AIF in SUM149PT cells; Compound 6.11 combined with doxorubicin or irinotecan/SN-38
  AIF nuclear translocation in combination: resulted in AIF nuclear translocation
AIF in SUM149PT cells
  cytoplasmic AIF: did not affect cytoplasmic AIF
  nuclear AIF: increased nuclear AIF
PAR in SUM149PT cells; Compound 6.11 combined with doxorubicin
  PAR localization: shifted PAR to the cytoplasm
PAR in SUM149PT cells
  cytoplasmic PAR: increased cytoplasmic PAR
